{"source": "patent US20060211766A1", "about": "“Gelled immunomodulating topical compositions and a method of treating warts and other human papilloma virus skin infections” (priority 2004, published 2006)", "origin": "cited, not measured here", "system": "rodents", "conditions": "in rodents"}
{"smiles": "CC(C)=O", "note": "[Acetone]", "values": [{"measurement": "LD/50", "result": 10.7, "unit": "mg per kilogram"}]}
